Laboratory results taken from US20200069775A1, “BRAIN OSTEOCALCIN RECEPTOR AND COGNITIVE DISORDERS” (The Trustees of Columbia University in the City of New York, priority 2017, published 2020).
Entries after “also recorded” stand apart in the source; their conditions may differ.

Assays:
WT mice = assay: Contextual Fear Conditioning after acute hippocampal injection; assay type: in vivo, mouse
Experimental: FIG. 11. CREB activation by osteocalcin is functionally relevant. Contextual fear conditioning in 3.5 month old mice injected acutely with 10 ng recombinant uncarboxylated osteocalcin 24 hours prior to context exposure. 3 shocks of 0.55 mA were delivered to mice 1 min apart.
To determine whether these acute injections and corresponding activation of the CREB pathway are functionally relevant, Contextual Fear Conditioning (CFC), a hippocampus dependent task that assesses long term memory, was performed. Mice were injected acutely in both hemispheres with either PBS or 10 ng recombinant uncarboxylated osteocalcin.

Gpr158 = molecular target: T1, Gpr158 (Mus musculus, UniProt Q8C419); assay: Hippocampal lentiviral sh-Gpr158 knockdown followed by osteocalcin injection, NOR and CFC; assay type: in vivo; set-up: from tissue; host or cells: anterior hippocampus of living 3-month-old C57BL/6J male mice
T1 sequence (Q8C419 25-1200): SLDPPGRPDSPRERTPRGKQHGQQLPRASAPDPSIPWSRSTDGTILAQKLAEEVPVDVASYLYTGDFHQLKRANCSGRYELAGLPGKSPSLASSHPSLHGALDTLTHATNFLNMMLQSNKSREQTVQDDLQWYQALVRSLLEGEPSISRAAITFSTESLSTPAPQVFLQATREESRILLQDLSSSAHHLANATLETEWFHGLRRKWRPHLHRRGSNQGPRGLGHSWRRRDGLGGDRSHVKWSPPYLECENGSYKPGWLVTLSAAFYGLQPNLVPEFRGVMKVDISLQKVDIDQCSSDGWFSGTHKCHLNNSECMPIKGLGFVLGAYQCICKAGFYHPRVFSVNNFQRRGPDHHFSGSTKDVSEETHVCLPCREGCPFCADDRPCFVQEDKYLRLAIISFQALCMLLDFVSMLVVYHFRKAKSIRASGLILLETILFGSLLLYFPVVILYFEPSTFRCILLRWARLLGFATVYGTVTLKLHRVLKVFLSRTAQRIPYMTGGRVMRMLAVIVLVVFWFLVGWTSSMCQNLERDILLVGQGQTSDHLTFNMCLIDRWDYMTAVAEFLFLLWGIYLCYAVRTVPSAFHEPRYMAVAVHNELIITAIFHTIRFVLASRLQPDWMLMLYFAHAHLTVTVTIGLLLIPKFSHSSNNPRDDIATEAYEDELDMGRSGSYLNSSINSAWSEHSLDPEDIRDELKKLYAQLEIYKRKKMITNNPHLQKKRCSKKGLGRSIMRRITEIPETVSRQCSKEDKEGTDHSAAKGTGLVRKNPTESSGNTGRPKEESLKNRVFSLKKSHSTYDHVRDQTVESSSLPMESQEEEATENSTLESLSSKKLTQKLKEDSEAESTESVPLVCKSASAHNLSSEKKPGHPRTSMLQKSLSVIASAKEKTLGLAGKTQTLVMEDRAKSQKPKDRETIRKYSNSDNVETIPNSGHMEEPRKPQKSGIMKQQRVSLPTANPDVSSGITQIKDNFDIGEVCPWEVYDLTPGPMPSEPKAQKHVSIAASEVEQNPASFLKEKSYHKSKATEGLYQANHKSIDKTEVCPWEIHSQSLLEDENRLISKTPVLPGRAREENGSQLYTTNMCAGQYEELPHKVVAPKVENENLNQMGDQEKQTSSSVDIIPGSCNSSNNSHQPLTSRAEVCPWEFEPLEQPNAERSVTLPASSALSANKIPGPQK
Experimental: Mice were anesthetized with intra-peritoneal injection of […] (Rompun 2%; Bayer) and placed in a stereotaxic frame (900SL-KOPF). Ophthalmic eye ointment was applied to the cornea to prevent desiccation during surgery. The area around the incision was trimmed and Vetedine solution (Vetoquinol) was appplied. Lentiviruses expressing shRNA targeting Gpr158 or non-effective scramble shRNA in pGFP-C-shLentiVector were injected bilaterally into the anterior hippocampi using the following coordinates: (from bregma) anterior=−2.0 mm, lateral=+/−1.4 mm and height=-1.33 mm. Coordinates were determined using the Mouse Brain in Stereotaxic Coordinates (Paxinos and Franklin, 2008). Two weeks later, osteocalcin (10 ng) or NaCl were injected using the same coordinates. […]
Novel object recognition test (NOR): The NOR paradigm assesses the rodent's ability to recognize a novel object in the environment. […] These objects elicit equal levels of exploration as determined in pilot experiments (Denny, C. A., et al., 2012, Hippocampus 22:1188-1201; Oury, F., et al., 2013, Cell 155:228-241). […] Preference for the novel object is assessed based on the fraction of time that a mouse spends exploring the novel object compared to the familiar object. Exploration is scored from video recordings of each exposure and recorded using the Stopwatch program. […]

osteocalcin: Recombinant osteocalcin bacterially produced, cleaved from the GST subunit; completely undercarboxylated at all three sites; full-length mouse osteocalcin (YLGASVPSPDPLEPTREQCELNPACDELSDQYGLKTAYKRIYGITI)
% freezing on Day 1 (CFC) (WT mice; 10 ng injected 24 hours prior to context exposure): % freezing was the same for both groups
freezing behavior 24 hours after the initial shocks (CFC) (WT mice; 10 ng injected acutely in both hemispheres, listed as recombinant uncarboxylated osteocalcin): increased freezing behavior as compared to controls; also recorded: increased freezing along with hyperexcitability
memory performance (NOR) (Gpr158; control (scrambled shRNA) mice, osteocalcin 10 ng in anterior hippocampus): enhanced memory performance
contextual fear conditioning (CFC) (Gpr158; sh-control vs sh-Gpr158 mice, osteocalcin 10 ng): A similar result was obtained
